This is an account of results in ChEMBL document CHEMBL1132885, “Phosphate prodrugs of PD154075” (Bioorg Med Chem Lett, 2000).

Data set [1] in a line: Solubility in water was determined. Format: physicochemical.
Data set [2] has as its system Rattus norvegicus. Kind of data set: In vivo percentage of prodrug (Compound) reconversion to PD-154075 from (male Wistar rat) plasma after intravenous administration of the 5 mg/ml compound. The format is functional.
Data set [3] relates to Rattus norvegicus. Kind of data set: In vivo percentage of prodrug (Compound) reconversion to PD-154075 from (male Wistar rat) plasma after intravenous administration of the 4.6 mg/ml compound. The format is functional.
Data set [4] concerns Rattus norvegicus. As to the kind of experiment: In vivo percentage of prodrug (Compound) reconversion to PD-154075 from (male Wistar rat) plasma after intravenous administration of the 5.7 mg/ml compound. Format: functional.
Data set [5] has as its system Rattus norvegicus. Kind of data set: In vivo percentage of prodrug (Compound) reconversion to PD-154075 from (male Wistar rat) plasma after intravenous administration of the 5.3 mg/mL compound. Format: functional.

One may read the solubility as the concentration that dissolves in the medium under given conditions. On to `Cc1cc(C)c(C(C)(C)CC(=O)n2cc(C[C@@](C)(NC(=O)OCc3cc4ccccc4o3)C(=O)N[C@H](C)c3ccccc3)c3ccccc32)c(OP(=O)([O-])[O-])c1.[Na+].[Na+]`, for which the concentration in solution in data set [1] (solubility) came to 31 mg/mL. The Prodrug reconversion in data set [2] is on record as 9.35%.
`C[C@@H](NC(=O)[C@@](C)(Cc1cn(C(=O)c2ccccc2COP(=O)([O-])[O-])c2ccccc12)NC(=O)OCc1cc2ccccc2o1)c1ccccc1.[Na+].[Na+]` displayed a solubility in data set [1] of 55 mg/mL. For the same molecule, in data set [3], the Prodrug reconversion stood at 19.9%.
Regarding `C[C@@H](NC(=O)[C@@](C)(Cc1cn(P(=O)([O-])[O-])c2ccccc12)NC(=O)OCc1cc2ccccc2o1)c1ccccc1.[Na+].[Na+]`, in data set [4], the Prodrug reconversion is 11.7%. The solubility in data set [1] was 76 mg/mL.
On to `C[C@@H](NC(=O)[C@@](C)(Cc1cn(C(=O)OCOC(=O)c2ccc(COP(=O)([O-])[O-])cc2)c2ccccc12)NC(=O)OCc1cc2ccccc2o1)c1ccccc1.[Na+].[Na+]`, for which the solubility in data set [1] is 58 mg/mL. Further, the Prodrug reconversion in data set [5] worked out at 59.5%.
In the case of `CC(NC(=O)[C@@](C)(Cc1c[nH]c2ccccc12)NC(=O)OCc1cc2ccccc2o1)c1ccccc1` (single isomer, unassigned), the solubility in data set [1] is less than 0.001 mg/mL.
